Reference: patent publication US20220187282A1, “CARDIOMYOCYTE PROLIFERATION” (The Council of the Queensland Institute of Medical Research, priority 2019, published 2022)
Read-outs that look alike come from different tables or passages of the source.

Key:
Assay type in all cases: biochemical
kinases [1] = target: kinases (Homo sapiens, UniProt Q13882); details: PTK6 (Brk) *Mn* FRET-Z-Lyte SP; Test Conc(μM):ATP Conc(μM) 1:75
kinases [2] = target: kinases (Homo sapiens, UniProt P05129); details: PRKCG (PKC gamma) Z-Lyte SP; Test Conc(μM):ATP Conc(μM) 1:25
kinases [3] = target: kinases (Homo sapiens, UniProt P31751); details: AKT2 (PKB beta) FRET-Z-Lyte SP; Test Conc(μM):ATP Conc(μM) 1:200
kinases (Homo sapiens, UniProt P31751), sequence (P31751 whole entry): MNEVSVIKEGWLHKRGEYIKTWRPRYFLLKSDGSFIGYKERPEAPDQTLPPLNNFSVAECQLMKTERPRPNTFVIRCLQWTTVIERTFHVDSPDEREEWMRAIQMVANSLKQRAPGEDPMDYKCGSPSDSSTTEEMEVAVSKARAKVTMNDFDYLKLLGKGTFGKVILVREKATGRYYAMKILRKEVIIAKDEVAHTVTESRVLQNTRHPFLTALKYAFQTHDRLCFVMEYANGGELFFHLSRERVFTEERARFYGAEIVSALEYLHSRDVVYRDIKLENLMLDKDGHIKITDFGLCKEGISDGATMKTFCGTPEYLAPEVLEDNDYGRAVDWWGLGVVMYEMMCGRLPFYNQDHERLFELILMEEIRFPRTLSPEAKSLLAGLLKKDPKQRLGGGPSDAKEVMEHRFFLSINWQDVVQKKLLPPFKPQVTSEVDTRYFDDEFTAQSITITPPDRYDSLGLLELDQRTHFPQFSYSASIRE

kinases [4] = target: kinases (Homo sapiens, UniProt Q5VT25); details: CDC42 BPA (MRCKA) Z-Lyte SP; Test Conc(μM):ATP Conc(μM) 1:5
kinases (Homo sapiens, UniProt Q5VT25), sequence (Q5VT25 whole entry): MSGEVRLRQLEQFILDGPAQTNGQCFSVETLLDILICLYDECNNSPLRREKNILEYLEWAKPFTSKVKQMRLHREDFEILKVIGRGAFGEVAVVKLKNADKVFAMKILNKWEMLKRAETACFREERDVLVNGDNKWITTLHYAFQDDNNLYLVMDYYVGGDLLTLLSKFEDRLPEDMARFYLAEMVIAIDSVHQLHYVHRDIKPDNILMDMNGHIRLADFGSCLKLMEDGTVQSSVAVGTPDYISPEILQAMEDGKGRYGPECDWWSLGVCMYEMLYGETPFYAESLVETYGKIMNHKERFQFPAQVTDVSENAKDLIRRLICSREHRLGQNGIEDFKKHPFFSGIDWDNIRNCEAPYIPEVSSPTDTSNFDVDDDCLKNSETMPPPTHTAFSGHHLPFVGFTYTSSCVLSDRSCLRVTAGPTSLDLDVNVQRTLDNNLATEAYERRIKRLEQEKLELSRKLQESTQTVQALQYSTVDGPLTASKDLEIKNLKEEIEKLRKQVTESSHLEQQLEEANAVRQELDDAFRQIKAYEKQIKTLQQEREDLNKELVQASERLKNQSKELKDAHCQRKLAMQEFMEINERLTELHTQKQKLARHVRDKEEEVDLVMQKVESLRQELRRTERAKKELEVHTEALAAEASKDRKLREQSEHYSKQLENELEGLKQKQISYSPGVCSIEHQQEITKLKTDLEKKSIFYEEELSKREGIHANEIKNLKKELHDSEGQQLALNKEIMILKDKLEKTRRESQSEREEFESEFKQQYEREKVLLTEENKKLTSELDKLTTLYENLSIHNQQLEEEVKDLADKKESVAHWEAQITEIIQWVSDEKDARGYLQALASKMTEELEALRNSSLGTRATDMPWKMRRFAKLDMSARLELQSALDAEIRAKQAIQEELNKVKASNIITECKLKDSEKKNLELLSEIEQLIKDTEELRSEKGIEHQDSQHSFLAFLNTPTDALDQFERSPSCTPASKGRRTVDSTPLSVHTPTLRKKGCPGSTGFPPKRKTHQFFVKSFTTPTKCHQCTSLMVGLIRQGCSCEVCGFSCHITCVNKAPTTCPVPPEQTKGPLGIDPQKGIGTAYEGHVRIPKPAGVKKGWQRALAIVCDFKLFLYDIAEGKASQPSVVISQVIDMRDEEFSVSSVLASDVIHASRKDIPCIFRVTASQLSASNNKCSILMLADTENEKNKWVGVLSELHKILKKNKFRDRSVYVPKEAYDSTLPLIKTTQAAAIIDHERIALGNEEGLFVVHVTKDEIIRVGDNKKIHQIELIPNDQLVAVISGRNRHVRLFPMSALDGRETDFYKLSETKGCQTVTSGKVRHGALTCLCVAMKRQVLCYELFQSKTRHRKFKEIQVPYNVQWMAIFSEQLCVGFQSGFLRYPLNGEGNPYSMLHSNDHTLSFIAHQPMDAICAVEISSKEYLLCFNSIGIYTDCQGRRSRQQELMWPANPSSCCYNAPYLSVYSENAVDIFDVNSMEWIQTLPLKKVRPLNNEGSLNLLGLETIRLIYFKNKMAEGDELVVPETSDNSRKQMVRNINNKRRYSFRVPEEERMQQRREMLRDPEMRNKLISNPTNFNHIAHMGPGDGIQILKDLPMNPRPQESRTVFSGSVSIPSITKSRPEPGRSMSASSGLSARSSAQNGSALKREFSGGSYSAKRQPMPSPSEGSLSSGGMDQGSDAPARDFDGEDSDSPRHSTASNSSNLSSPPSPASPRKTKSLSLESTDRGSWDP

kinases [5] = target: kinases (Homo sapiens, UniProt P54756); details: EPHA5 FRET-Z-Lyte SP; Test Conc(μM):ATP Conc(μM) 1:150
kinases [6] = target: kinases (Homo sapiens, UniProt Q9Y5S2); details: CDC42 BPB (MRCKB) Z-Lyte SP; Test Conc(μM):ATP Conc(μM) 1:5
kinases [7] = target: kinases (Homo sapiens, UniProt P36894); details: BMPR1A (ALK3) FRET-Lantha SP; Test Conc(μM) 1
kinases [8] = target: kinases (Homo sapiens, UniProt P78368); details: CSNK1G2 (CK1gamma2) Z-Lyte SP; Test Conc(μM):ATP Conc(μM) 1:5
kinases (Homo sapiens, UniProt P78368), sequence (P78368 whole entry): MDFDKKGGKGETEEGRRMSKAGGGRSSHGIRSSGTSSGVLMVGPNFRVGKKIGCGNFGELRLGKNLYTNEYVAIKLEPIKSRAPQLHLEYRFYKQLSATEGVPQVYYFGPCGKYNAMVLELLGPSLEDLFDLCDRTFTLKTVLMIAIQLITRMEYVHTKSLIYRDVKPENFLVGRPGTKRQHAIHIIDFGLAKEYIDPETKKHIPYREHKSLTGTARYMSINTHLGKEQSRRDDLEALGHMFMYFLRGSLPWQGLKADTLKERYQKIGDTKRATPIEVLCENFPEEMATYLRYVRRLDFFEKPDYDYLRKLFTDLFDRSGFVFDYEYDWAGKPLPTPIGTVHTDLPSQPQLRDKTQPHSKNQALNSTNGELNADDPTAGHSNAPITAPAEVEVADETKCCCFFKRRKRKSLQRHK

kinases [9] = target: kinases (Homo sapiens, UniProt Q08881); details: ITK FRET-Z-Lyte SP; Test Conc(μM):ATP Conc(μM) 1:5
kinases (Homo sapiens, UniProt Q08881), sequence (Q08881 whole entry): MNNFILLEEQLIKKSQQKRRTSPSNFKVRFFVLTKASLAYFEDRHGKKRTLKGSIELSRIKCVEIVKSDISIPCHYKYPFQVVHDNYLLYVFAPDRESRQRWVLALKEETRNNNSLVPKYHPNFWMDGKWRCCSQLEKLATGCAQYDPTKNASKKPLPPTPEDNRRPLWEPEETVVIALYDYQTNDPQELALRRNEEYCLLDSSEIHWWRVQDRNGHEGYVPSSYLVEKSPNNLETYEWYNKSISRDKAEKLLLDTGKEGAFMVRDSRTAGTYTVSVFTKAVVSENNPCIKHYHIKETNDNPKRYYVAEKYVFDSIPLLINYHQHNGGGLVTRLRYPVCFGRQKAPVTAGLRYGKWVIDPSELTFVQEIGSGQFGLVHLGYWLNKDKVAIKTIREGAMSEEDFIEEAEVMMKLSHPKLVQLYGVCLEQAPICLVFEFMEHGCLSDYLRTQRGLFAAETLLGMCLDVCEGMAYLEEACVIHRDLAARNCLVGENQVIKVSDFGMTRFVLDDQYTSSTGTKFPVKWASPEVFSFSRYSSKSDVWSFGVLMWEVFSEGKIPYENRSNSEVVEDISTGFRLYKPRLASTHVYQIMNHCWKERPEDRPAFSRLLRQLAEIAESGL

kinases [10] = target: kinases (Homo sapiens, UniProt P11802); details: Test Conc(μM):ATP Conc(μM) 1:10
kinases (Homo sapiens, UniProt P11802), sequence (P11802 whole entry): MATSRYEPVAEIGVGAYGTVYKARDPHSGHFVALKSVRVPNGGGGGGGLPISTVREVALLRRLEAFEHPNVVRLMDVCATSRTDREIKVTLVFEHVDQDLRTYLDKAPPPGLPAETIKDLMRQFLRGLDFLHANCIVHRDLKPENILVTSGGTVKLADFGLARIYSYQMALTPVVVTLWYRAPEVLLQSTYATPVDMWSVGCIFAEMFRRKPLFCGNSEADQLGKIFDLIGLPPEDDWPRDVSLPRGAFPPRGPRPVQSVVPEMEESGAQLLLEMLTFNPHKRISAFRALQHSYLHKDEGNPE

kinases [11] = target: kinases (Homo sapiens, UniProt O95835); details: LATS1 FRET-Lantha SP; Test Conc(μM) 1
kinases [12] = target: kinases (Homo sapiens, UniProt Q9Y2U5); details: MAP3K2 (MEKK2) FRET-Lantha SP; Test Conc(μM) 1
kinases [13] = target: kinases (Homo sapiens, UniProt P48426); details: PIP4K2A FRET-Adapta SP; Test Conc(μM):ATP Conc(μM) 1:10
kinases (Homo sapiens, UniProt P48426), sequence (P48426 whole entry): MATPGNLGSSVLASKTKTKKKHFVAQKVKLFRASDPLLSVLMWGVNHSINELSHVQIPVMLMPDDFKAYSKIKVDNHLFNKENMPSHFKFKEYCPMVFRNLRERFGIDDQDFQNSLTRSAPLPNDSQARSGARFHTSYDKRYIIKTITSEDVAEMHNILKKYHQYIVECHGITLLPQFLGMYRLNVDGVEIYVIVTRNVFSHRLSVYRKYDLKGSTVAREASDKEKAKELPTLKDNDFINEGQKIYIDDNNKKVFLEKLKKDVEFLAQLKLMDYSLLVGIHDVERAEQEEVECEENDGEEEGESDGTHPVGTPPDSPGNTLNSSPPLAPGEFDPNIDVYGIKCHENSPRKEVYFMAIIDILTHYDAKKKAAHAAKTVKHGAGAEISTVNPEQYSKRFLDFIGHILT

kinases [14] = target: kinases (Homo sapiens, UniProt Q9BYT3); details: STK33 FRET-Lantha SP; Test Conc(μM) 1
kinases [15] = target: kinases (Homo sapiens, UniProt Q9UF33); details: EPHA6 FRET-Lantha SP; Test Conc(μM) 1
kinases [16] = target: kinases (Homo sapiens, UniProt P07333); details: CSF1R (FMS) FRET-Z-Lyte SP; Test Conc(μM):ATP Conc(μM) 1:500
kinases (Homo sapiens, UniProt P07333), sequence (P07333 20-972): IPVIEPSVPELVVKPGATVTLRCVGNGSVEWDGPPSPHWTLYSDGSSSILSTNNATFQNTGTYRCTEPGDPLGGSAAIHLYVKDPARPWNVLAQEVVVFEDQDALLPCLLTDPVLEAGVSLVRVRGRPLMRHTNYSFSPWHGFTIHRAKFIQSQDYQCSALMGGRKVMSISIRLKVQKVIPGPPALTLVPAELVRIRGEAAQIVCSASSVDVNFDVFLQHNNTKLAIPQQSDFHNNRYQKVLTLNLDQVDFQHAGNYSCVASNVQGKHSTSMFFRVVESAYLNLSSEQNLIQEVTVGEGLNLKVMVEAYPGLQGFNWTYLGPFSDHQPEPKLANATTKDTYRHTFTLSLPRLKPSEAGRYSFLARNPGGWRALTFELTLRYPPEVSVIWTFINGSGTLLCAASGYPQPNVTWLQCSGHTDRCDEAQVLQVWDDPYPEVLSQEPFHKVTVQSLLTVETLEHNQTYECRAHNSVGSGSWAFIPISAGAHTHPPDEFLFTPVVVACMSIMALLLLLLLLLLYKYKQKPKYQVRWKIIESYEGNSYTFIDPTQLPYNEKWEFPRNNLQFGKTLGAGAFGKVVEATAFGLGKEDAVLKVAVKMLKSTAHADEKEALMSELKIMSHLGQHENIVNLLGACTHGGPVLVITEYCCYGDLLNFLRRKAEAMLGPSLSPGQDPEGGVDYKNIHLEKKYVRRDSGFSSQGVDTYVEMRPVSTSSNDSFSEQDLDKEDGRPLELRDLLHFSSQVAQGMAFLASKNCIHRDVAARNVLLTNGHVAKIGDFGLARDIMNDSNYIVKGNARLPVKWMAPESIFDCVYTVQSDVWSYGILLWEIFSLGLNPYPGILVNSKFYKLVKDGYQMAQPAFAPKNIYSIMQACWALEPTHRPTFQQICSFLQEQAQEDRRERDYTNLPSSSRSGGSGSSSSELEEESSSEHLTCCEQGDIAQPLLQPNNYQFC

kinases [17] = target: kinases (Homo sapiens, UniProt P41743); details: PRKCI (PKC iota) Z-Lyte SP; Test Conc(μM):ATP Conc(μM) 1:25
kinases [18] = target: kinases (Homo sapiens, UniProt Q9NRA0); details: SPHK2 FRET-Adapta SP; Test Conc(μM):ATP Conc(μM) 1:10
kinases [19] = target: kinases (Homo sapiens, UniProt Q8TD19); details: NEK9 *Mn* FRET-Z-Lyte SP; Test Conc(μM):ATP Conc(μM) 1:100
kinases [20] = target: kinases (Homo sapiens, UniProt P49841); details: GSK3B FRET-Z-Lyte SP; Test Conc(μM):ATP Conc(μM) 1:10
kinases [21] = target: kinases (Homo sapiens, UniProt Q9H093); details: NUAK2 FRET-Lantha SP; Test Conc(μM) 1
kinases [22] = target: kinases (Homo sapiens, UniProt Q92630); details: DYRK2 FRET-Lantha SP; Test Conc(μM) 1
kinases [23] = target: kinases (Homo sapiens, UniProt Q9HBY8); details: SGK2 FRET-Z-Lyte SP; Test Conc(μM):ATP Conc(μM) 1:50
kinases [24] = target: kinases (Homo sapiens, UniProt P27448); details: MARK3 FRET-Z-Lyte SP; Test Conc(μM):ATP Conc(μM) 1:5
kinases [25] = target: kinases (Homo sapiens, UniProt P21709); details: EPHA1 FRET-Z-Lyte SP; Test Conc(μM):ATP Conc(μM) 1:25
kinases [26] = target: kinases (Homo sapiens, UniProt Q9H0K1); details: SNF1LK2 FRET-Z-Lyte SP; Test Conc(μM):ATP Conc(μM) 1:50
kinases [27] = target: kinases (Homo sapiens, UniProt P51812); details: RPS6KA3 (RSK2) FRET-Z-Lyte SP; Test Conc(μM):ATP Conc(μM) 1:10
kinases [28] = target: kinases (Homo sapiens, UniProt P28482); details: MAPK1 (ERK2) FRET-Z-Lyte SP; Test Conc(μM):ATP Conc(μM) 1:100

With `Cc1ccc(NC(=O)c2ccnc(N3CCOCC3)c2)cc1Nc1ccnc(N2CC(C)OC(C)C2)n1` (stereo not shown) [compound 3] the “Mean Inhib (%)” value (kinases [1]) was 3.5%, the “Mean Inhib (%)” value (kinases [2]) was 20.4% and the “Mean Inhib (%)” value (kinases [3]) was 8.0%. For the same molecule, the “Mean Inhib (%)” value (kinases [4]) was −2.0%, the “Mean Inhib (%)” value (kinases [5]) was 6.7% and the “Mean Inhib (%)” value (kinases [6]) was −7.0%. For the same molecule, the “Mean Inhib (%)” value (kinases [7]) was −1.5%, the “Mean Inhib (%)” value (kinases [8]) was 3.9% and the “Mean Inhib (%)” value (kinases [9]) was 6.1%. For the same molecule, the “Mean Inhib (%)” value (kinases [10]; CDK4 Cyclin D1 *Mn* Adapta SP) was 7.8%, the “Mean Inhib (%)” value (kinases [10]; CDK4 Cyclin D3 *Mn* Adapta SP) was 5.0% and the “Mean Inhib (%)” value (kinases [11]) was 19.8%. For the same molecule, the “Mean Inhib (%)” value (kinases [12]) was 3.5%, the “Mean Inhib (%)” value (kinases [13]) was 2.2% and the “Mean Inhib (%)” value (kinases [14]) was 1.7%. The “Mean Inhib (%)” value (kinases [15]) was 1.9%, the “Mean Inhib (%)” value (kinases [16]) was 12.1% and the “Mean Inhib (%)” value (kinases [17]) was −0.2%. For the same molecule, the “Mean Inhib (%)” value (kinases [18]) was −9.4%, the “Mean Inhib (%)” value (kinases [19]) was 1.8% and the “Mean Inhib (%)” value (kinases [20]) was 6.5%. The “Mean Inhib (%)” value (kinases [21]) was 14.1%, the “Mean Inhib (%)” value (kinases [22]) was −0.5% and the “Mean Inhib (%)” value (kinases [23]) was 1.2%. The “Mean Inhib (%)” value (kinases [24]) was 8.9%, the “Mean Inhib (%)” value (kinases [25]) was 6.7% and the “Mean Inhib (%)” value (kinases [26]) was 15.9%. The “Mean Inhib (%)” value (kinases [27]) was 0.0% and the “Mean Inhib (%)” value (kinases [28]) was 3.6%.
For `Cc1cc(Oc2ccnc(Nc3ccc(S(N)(=O)=O)cc3)c2)c(-c2ccccn2)nc1C` [compound 65], the “Mean Inhib (%)” value (kinases [1]) was 32.3%, the “Mean Inhib (%)” value (kinases [2]) was −13.8% and the “Mean Inhib (%)” value (kinases [3]) was 2.3%. The “Mean Inhib (%)” value (kinases [4]) was −2.0%, the “Mean Inhib (%)” value (kinases [5]) was 65.2% and the “Mean Inhib (%)” value (kinases [6]) was −5.0%. The “Mean Inhib (%)” value (kinases [7]) was 83.6%, the “Mean Inhib (%)” value (kinases [8]) was 5.9% and the “Mean Inhib (%)” value (kinases [9]) was −6.9%. For the same molecule, the “CDK4 Cyclin D1 *Mn* Adapta SP Mean Mean Inhib (%)” value (kinases [10]; CDK4 Cyclin D1, Mn) was 2.5%, the “CDK4 Cyclin D3 *Mn* Adapta SP Mean Mean Inhib (%)” value (kinases [10]; CDK4 Cyclin D3, Mn) was −3.9% and the “Mean Inhib (%)” value (kinases [11]) was 17.2%. The “Mean Inhib (%)” value (kinases [12]) was 5.7%, the “Mean Inhib (%)” value (kinases [13]) was −8.6% and the “Mean Inhib (%)” value (kinases [14]) was −6.6%. The “Mean Inhib (%)” value (kinases [15]) was 54.2%, the “Mean Inhib (%)” value (kinases [16]) was 20.0% and the “Mean Inhib (%)” value (kinases [17]) was 9.7%. The “Mean Inhib (%)” value (kinases [18]) was −1.2%, the “Mean Inhib (%)” value (kinases [19]) was −4.1% and the “Mean Inhib (%)” value (kinases [20]) was 4.9%. For the same molecule, the “Mean Inhib (%)” value (kinases [21]) was 9.4%, the “Mean Inhib (%)” value (kinases [22]) was 9.6% and the “Mean Inhib (%)” value (kinases [23]) was −1.3%. The “Mean Inhib (%)” value (kinases [24]) was 4.7%, the “Mean Inhib (%)” value (kinases [25]) was 55.3% and the “Mean Inhib (%)” value (kinases [26]) was 10.7%. The “Mean Inhib (%)” value (kinases [27]) was −3.2% and the “Mean Inhib (%)” value (kinases [28]) was 7.5%.
